In patent publication US20250129096A1, “ANNULATED 2-AMINO-3-CYANO THIOPHENES AND DERIVATIVES FOR THE TREATMENT OF CANCER” (Boehringer Ingelheim Int'l GmbH Corp., priority 2021, published 2025):

Key:
[1] = molecular target: T1, KRAS (WT)::SOS1 (Homo sapiens, UniProt P01116, C118S); test: KRAS::SOS1 AlphaScreen binding assay, KRAS WT
T1 construct: KRAS (WT) 1-169, N-terminal 6His-tag for purification, cleaved off; 6His-tag (N, cleaved yes); TEV cleavage site
Method: (§1) Low IC50 values in this assay setting are indicative of strong inhibition of protein-protein interaction between SOS1 and KRAS:
(§2) These assays measure the inhibitory effect of compounds on KRAS mutant protein-protein interactions using the Alpha Screen technology by Perkin Elmer.
(§3) For the chosen highest assay concentration of 100 μM, 150 nL of compound solution are transferred from a 10 mM DMSO compound stock solution. A series of eleven fivefold dilutions per compound are transferred to the assay plate, compound dilutions are tested in duplicates. DMSO are added as backfill to a total volume of 150 nL.
(§4) The assays run on a fully automated robotic system in a darkened room below 100 Lux. To 150 nl of compound dilution 10 μl of a mix including KRAS mutant protein, SOS1 (final assay concentrations see above) and GDP nucleotide (Sigma G7127; final assay concentration 10 μM) in assay buffer (1×PBS, 0.1% BSA, 0.05% Tween 20) are added into columns 1-24. After 30 minutes incubation time 5 μl of Alpha Screen bead mix in assay buffer are added into columns 1-23.
(§5) Plates are kept at room temperature in a darkened incubator. After an additional 60 minutes incubation time the signal is measured in a PerkinElmer Envision HTS Multilabel Reader using the AlphaScreen specs from PerkinElmer.
(§6) IC50 values are calculated and analyzed with Boehringer Ingelheim's MEGALAB IC50 application using a 4 parametric logistic model.

[2] = Caco-2 assay; format: in vitro ADME; details: human; for Papp A→B at 90 min, 10 μM: Caco-2, apical to basolateral, pH 7.4, read-out: Caco PappAB; for efflux ratio at 90 min, 10 μM: Caco-2, pH 7.4, efflux ratio PappBA/PappAB, read-out: Caco ER
Source text: The assay provides information on the potential of a compound to pass the cell membrane, on the extent of oral absorption as well as on whether the compound is actively transported by uptake and/or efflux transporters. Permeability measurements across polarized, confluent Caco-2 cell monolayers grown on permeable filter supports (Corning, catalog #3391) are used. […] The receiver and donor compartments contain 0.25% bovine serum albumine (BSA) in assay buffer. Passive diffusion and/or active transport of compounds across the monolayer is measured in both apical to basolateral (a-b) and basolateral to apical (b-a) direction. a-b permeability (PappAB) represents drug absorption from the intestine into the blood and b-a permeability (PappBA) drug secretion from the blood back into the intestine via both passive permeability as well as active transport mechanisms mediated by efflux and uptake transporters that are expressed on the Caco-2 cells. After a pre-incubation of 25-30 min at 37° C., at predefined time points (0, 30, 60 and 90 min), samples were taken from the receiver and donor compartment, respectively. Concentrations of test compounds in samples were measured by HPLC/MS/MS, samples from the donor compartment were diluted 1:50 (v:v) with assay buffer, samples from receiver compartment were measured without dilution.
Apparent permeabilities in a-b (PappAB) and b-a (PappBA) directions are calculated according to the formula:
[formula] • Vrec [mL]: buffer volume in receiver compartment • Cdon [μmol/mL]: concentration of test compound in donor compartment at t=0 • ΔCrec: difference between concentrations of test compound in receiver compartment at start and end of incubation time • Δt: Incubation time • Vrec·ΔCrec/Δt [μmol/min]: Amount of compound transferred to receiver compartment per time • A [cm^2]: filter surface
Caco-2 efflux ratios (ER) are calculated as the ratio of PappBA/PappAB.

[3] = system: GP2D cells (colorectal cancer, G12D); test: GP2D proliferation assay (120 h); format: cell-based; details: CellTiter-Glo
Method: GP2D cells (ATCC No. CRL-5807) are dispensed into white 384-well plates, flat and white bottom (Perkin Elmer, 6007680) at a density of 500 cells per well in 40 μl DMEM (Sigma, D6429)+1× GlutaMAX (Gibco, 35050038)+10% FCS (fetal calf serum). […] Compounds (10 mM stock in DMSO) are added at logarithmic dose series using the HP Digital Dispenser D300 (Tecan), including DMSO controls and normalizing for added DMSO. For the TO time point measurement, untreated cells are analyzed at the time of compound addition. Plates are incubated for 120 h, and cell viability is measured using CellTiter-Glo luminescent cell viability reagent (Promega product code G7570). Viability (stated as percent of control) is defined as relative luminescence units RLU of each well divided by the RLU of cells in DMSO controls. IC50 values are determined from viability measurements by non-linear regression using a four-parameter model.

[4] = molecular target: T2, KRAS (G12V)::SOS1 (Homo sapiens, UniProt P01116, C118S/G12V); test: KRAS::SOS1 AlphaScreen binding assay, KRAS G12V
T2 construct: KRAS (G12V) 1-169, N-terminal 6His-tag, for purification, cleaved off; 6His-tag (N, cleaved yes); TEV cleavage site
Method: as §1, §2, §3, §4, §5, §6

[5] = system: NCI-H358 cells (NSCLC, G12C); test: NCI-H358 CTG proliferation assay (120 h), assay 2; format: cell-based; details: Homo sapiens, CellTiter-Glo, 384-well, 200 cells per well
Method: NCI-1H358 cells (ATCC No. CRL-5807) are dispensed into white bottom opaque 96 well plates (Perkin Elmer cat no. 5680) at a density of 2000 cells per well in 100 μL RPM 1-1640 ATCC-Formulation (Gibco #A10491)+10% FCS (fetal calf serum) (assay 1) or into black 384-well plates, flat and clear bottom (Greiner, PNr. 781091) at a density of 200 cells per well in 60 μl RPMI-1640 ATCC-Formulation (Gibco #A10491)+10% FCS (fetal calf serum) (assay 2). […] Compounds (10 mM stock in DMSO) are added at logarithmic dose series using the HP Digital Dispenser D300 (Tecan) (assay 1) or the ECHO acoustic liquid handler system (Beckman Coulter) (assay 2), normalizing for added DMSO and including DMSO controls. For the TO time point measurement, untreated cells are analyzed at the time of compound addition. Plates are incubated for 120 h, and cell viability is measured using CellTiter-Glo luminescent cell viability reagent (Promega product code G7570). Viability (stated as percent of control) is defined as relative luminescence units RLU of each well divided by the RLU of cells in DMSO controls. IC50 values are determined from viability measurements by non-linear regression using a four-parameter model.

T1 sequence (P01116 1-169 isoform P01116-2 C118S): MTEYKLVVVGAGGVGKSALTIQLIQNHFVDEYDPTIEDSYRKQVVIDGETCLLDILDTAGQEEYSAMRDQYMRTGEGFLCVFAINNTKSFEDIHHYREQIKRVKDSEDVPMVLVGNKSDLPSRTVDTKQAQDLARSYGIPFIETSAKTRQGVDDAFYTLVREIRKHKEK
T2 sequence (P01116 1-169 isoform P01116-2 G12V/C118S): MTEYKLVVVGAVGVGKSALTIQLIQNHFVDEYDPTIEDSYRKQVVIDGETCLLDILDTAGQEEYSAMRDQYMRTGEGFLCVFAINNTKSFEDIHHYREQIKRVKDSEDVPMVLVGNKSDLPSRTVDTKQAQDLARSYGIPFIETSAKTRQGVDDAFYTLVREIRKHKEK

| Compound | IC50 [1] [nM] | Papp A→B at 90 min, 10 μM [2] [×10⁻⁶ cm/s] | efflux ratio at 90 min, 10 μM [2] | IC50 [3] [nM] | IC50 [4] [nM] | IC50 [5] [nM] |
| --- | --- | --- | --- | --- | --- | --- |
| C[C@H]1CNCCCN1c1nccc(-c2noc3c2CCC[C@@]32CCCc3sc(N)c(C#N)c32)n1 (single isomer, unassigned) [IIb-5] | 12 | 13 | 1.2 | – | – | – |
| C[C@H](Oc1ccnc(-c2noc3c2CCC[C@@]32CCCc3sc(N)c(C#N)c32)n1)[C@@H]1CCCN1C [IIb-3] | 7 | 17 | 2 | 171 | 2 | 743 |
| C[C@H]1CNCCN1c1nccc(-c2noc3c2CCC[C@@]32CCCc3sc(N)c(C#N)c32)n1 [IIf-1] | – | 12 | – | 228 | – | 3000 |
| C[C@H]1[C@@H]2CCCN2CCCN1c1nccc(-c2onc3c2CCC[C@@]32CCCc3sc(N)c(C#N)c32)n1 [Id-1] | 9 | – | – | 69 | 8 | – |
| C[C@H](Oc1nccc(-c2onc3c2CCC[C@@]32CCCc3sc(N)c(C#N)c32)n1)[C@@H]1C[C@@H](F)CN1C [Ie-2] | – | 33 | 0.6 | 526 | 23 | – |

Results, then the compound that gave them:

| IC50 [1] [nM] | Papp A→B at 90 min, 10 μM [2] [×10⁻⁶ cm/s] | efflux ratio at 90 min, 10 μM [2] | IC50 [3] [nM] | IC50 [4] [nM] | IC50 [5] [nM] | Compound |
| --- | --- | --- | --- | --- | --- | --- |
| – | – | – | – | – | 1710 | CCN1[C@H]2C[C@H]2C[C@H]1[C@H](C)Oc1nccc(-c2onc3c2CCC[C@@]32CCCc3sc(N)c(C#N)c32)n1 [Ie-3] |
| 43 | 9.4 | 3.2 | 936 | 201 | 2200 | C[C@H]1CNCCCN1c1nccc(-c2onc3c2CCC[C@@]32CCCc3sc(N)c(C#N)c32)n1 [If-1] |
| – | – | – | – | – | 3570 | C[C@H](Oc1nccc(-c2onc3c2CCC[C@@]32CCCc3sc(N)c(C#N)c32)n1)[C@@H]1C[C@@H]2C[C@@H]2N1C [Ih-1] |
